Experiment [1] deals with T1, AsbA (Bacillus anthracis, UniProt A0A0F7RJ52). Briefly: biochemical. Format: biochemical, B. anthracis. The following applies: for Ki: inhibition constant (Ki) AsbA.
Experiment [2] has as its system S. aureus (Newman). The experiment in a line: microbe, parasite or virus in culture. Type of experiment: cell-based. The following applies: for IC50: Staphylococcus aureus, NEWMAN, 8 h.
For experiment [3], the target named is T2, SbnE (Staphylococcus aureus, UniProt Q2G1M9). Briefly: biochemical. Format: biochemical, S. aureus. The following applies: for Ki: inhibition constant (Ki) SbnE.
T2 sequence (Q2G1M9 whole entry): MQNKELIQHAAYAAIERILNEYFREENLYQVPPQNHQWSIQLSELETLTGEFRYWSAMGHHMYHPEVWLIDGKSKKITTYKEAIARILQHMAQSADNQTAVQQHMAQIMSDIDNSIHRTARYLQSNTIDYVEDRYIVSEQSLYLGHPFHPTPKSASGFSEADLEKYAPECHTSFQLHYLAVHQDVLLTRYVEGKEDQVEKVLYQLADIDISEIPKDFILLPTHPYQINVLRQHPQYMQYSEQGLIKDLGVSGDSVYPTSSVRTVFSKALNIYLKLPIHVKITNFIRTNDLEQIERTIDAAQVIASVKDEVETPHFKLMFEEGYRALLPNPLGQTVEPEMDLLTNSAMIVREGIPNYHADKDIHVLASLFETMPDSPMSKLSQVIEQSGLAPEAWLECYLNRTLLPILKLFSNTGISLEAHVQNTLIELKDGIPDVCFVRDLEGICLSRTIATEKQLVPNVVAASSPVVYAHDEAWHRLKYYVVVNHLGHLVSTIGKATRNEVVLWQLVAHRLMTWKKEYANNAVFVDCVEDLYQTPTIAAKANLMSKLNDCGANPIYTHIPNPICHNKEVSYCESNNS
For experiment [4], the system named is MRSA (USA 300). The experiment in a line: microbe, parasite or virus in culture. Format: cell-based, methicillin-resistant Staphylococcus aureus. The conditions noted are these: Staphylococcus aureus.
Experiment [5] has as its system E. coli (MC 1061). The experiment in a line: microbe, parasite or virus in culture. The following applies: Escherichia coli. Format: cell-based.
Experiment [6] has as its target AsbB (Bacillus anthracis, UniProt Q81RQ8). The experiment in a line: biochemical. Format: biochemical.
Experiment [7] deals with T1, AsbA. Briefly: biochemical.
For experiment [8], the system named is S. typhimurium. The experiment in a line: microbe, parasite or virus in culture. Type of experiment: cell-based. The conditions noted are these: Salmonella enterica.
Experiment [9] has as its system S. flexneri (BS103). The experiment in a line: microbe, parasite or virus in culture. Type of experiment: cell-based. The following applies: Shigella flexneri.
The target of experiment [10] is T2, SbnE. The experiment in a line: biochemical.
The test system of experiment [11] is B. anthracis (Sterne 34F2). The experiment in a line: microbe, parasite or virus in culture. Format: cell-based. The conditions noted are these: for IC50: Bacillus anthracis.

Where two headings read alike, the source gives them in different places.

Chain of AsbB (Q81RQ8 whole entry, looked up): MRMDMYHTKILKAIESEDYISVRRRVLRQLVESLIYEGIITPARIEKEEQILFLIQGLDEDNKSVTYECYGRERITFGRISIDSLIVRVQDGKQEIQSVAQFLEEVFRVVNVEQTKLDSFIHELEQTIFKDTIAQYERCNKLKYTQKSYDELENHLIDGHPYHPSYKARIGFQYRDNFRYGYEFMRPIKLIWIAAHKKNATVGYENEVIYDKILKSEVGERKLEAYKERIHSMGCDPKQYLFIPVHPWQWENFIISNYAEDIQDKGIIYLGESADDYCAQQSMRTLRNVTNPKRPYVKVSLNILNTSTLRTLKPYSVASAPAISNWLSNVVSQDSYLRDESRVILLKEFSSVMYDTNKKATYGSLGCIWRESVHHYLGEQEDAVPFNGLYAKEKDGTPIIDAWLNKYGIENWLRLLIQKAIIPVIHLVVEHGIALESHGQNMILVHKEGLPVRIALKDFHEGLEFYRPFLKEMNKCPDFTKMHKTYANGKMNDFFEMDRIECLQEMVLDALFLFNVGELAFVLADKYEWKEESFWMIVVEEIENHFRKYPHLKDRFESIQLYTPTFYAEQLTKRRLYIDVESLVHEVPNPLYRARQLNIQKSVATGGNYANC
T1 sequence (A0A0F7RJ52 whole entry, looked up): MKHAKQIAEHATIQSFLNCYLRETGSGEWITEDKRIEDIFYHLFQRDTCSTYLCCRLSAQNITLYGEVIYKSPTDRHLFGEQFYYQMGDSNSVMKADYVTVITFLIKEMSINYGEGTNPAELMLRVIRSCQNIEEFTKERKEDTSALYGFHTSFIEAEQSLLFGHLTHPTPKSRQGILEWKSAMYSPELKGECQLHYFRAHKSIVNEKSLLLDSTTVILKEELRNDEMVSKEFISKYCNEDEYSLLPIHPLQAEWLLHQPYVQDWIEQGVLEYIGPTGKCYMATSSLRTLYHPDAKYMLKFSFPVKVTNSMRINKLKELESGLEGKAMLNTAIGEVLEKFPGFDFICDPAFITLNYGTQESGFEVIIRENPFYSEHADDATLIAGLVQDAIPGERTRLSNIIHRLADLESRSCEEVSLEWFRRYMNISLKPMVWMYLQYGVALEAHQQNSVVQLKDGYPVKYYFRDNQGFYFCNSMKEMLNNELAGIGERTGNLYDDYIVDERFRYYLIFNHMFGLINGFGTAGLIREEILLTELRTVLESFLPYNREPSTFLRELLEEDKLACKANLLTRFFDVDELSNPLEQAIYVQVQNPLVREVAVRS

For the compound `CCC(=O)[C@@H](C)C[C@@H](C)C[C@@H](C)CC[C@H](O)C[C@H](O)[C@H](CC(C)C)[C@H](O)c1cc(O)cc(O)c1` [BmcA, Baulamycin A], the “mechanism of inhibition of AsbA” value in [1] is reported as “reversible, competitive”. Besides, the Ki (as a rule, the dissociation constant of the complex between target and ligand, obtained from inhibition or displacement) in experiment [1] (ATP) was found to be 230 µM; in [1] (citric acid) it was 110 µM; in [1] (polyamine substrate), 170 µM; in experiment [3] (ATP), 680 µM; in [3] (citric acid) it was 50 µM; in experiment [3] (polyamine substrate), 210 µM. Further, the IC50 (commonly the concentration that gives 50% inhibition) in experiment [2] (read-out: IDM IC50) is 69 µM; in experiment [2] (read-out: IRM IC50), 86 µM; in [4] (read-out: IDM IC50), 130 µM; in experiment [4] (read-out: IRM IC50), 130 µM; in experiment [5] (read-out: IDM IC50) it was 4.2 µM; in experiment [5] (read-out: IRM IC50), 150 µM. Moreover, the concentration for half-maximal inhibition (IC50) in [6] was over 1 mM; in [7], 180 µM; in experiment [8] (read-out: IC50, iron-depleted conditions), over 1 mM; in experiment [8] (read-out: IC50, iron-rich conditions), over 1 mM; in experiment [8] (read-out: IDM IC50), over 1 mM; in experiment [8] (read-out: IRM IC50), over 1 mM. For the same compound, the IC50 turned out to be 20 µM in experiment [9] (read-out: IDM IC50); 46 µM in experiment [9] (read-out: IRM IC50); 4.8 µM in experiment [10]; 110 µM in experiment [11] (read-out: IDM IC50); 120 µM in experiment [11] (read-out: IRM IC50). Further, the “mechanism of inhibition of SbnE” value in experiment [3] is listed as “reversible, competitive”. Further, the “inhibition against AsbB (in words)” value in experiment [6] is listed as “negligible”.
As to `CC(=O)[C@@H](C)C[C@@H](C)C[C@@H](C)CC[C@H](O)C[C@H](O)[C@H](CC(C)C)[C@H](O)c1cc(O)cc(O)c1` [BmcB, Baulamycin B], the “potency against S. aureus (Newman) compared with BmcA (in words)” value in [2] is given as “significantly less potent”. The IC50 in [6] is over 1 mM; in experiment [7] it was 200 µM; in [10], 19 µM. Also, in [6], the “inhibition against AsbB (in words)” value is “negligible”. Besides, the “potency against B. anthracis (Sterne 34F2) compared with BmcA (in words)” value in [11] was “significantly less potent”.

(Values after US9803187B2 (priority 2014, dated 2017).)
